Patent US12060592B2, “Lov-D acyltransferase mediated acylation” (priority 2009, dated 2024)

Target: T1, LovD acyltransferase (Aspergillus terreus, UniProt Q9Y7D1)
T1 sequence (Q9Y7D1 1-413): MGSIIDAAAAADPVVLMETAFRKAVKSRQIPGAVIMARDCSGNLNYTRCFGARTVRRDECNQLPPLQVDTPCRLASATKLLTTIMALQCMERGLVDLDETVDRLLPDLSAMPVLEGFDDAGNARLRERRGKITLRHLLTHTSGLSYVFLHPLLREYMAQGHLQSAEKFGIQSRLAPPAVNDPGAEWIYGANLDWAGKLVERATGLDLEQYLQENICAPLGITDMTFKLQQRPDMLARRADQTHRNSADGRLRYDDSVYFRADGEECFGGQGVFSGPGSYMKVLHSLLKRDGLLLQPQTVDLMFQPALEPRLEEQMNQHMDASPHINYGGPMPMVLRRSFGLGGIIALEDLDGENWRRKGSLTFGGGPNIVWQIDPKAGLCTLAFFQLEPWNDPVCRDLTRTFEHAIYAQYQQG
Test: LovD acyltransferase mediated acylation: relative activity of thioester acyl donors
Format: biochemical
Details: thioester as acyl donor
Source text: Any one or more compounds shown in Table 1 may be used as thioesters in the methods of the present disclosure. Compound IV is one preferred thioester as its relative activity is high.

SMILES	Relative activity at 24 h (%)
CCC(C)(C)C(=O)SCCC(=O)OC [Compound IV]	++++ (++++ = 75-100)
CCCCSC(=O)C(C)(C)CC [IX]	+++ (+++ = 10-75)
CCC(C)(C)C(=O)SC(C)C [VIII]	+ (+ = 0-1)
CCSC(=O)C(C)(C)CC [VII]	++ (++ = 1-10)
CCC(C)(C)C(=O)SC [VI]	+ (+ = 0-1)
CCC(C)(C)C(=O)SCC(=O)OC [V]	++ (++ = 1-10)
